Measurements from PubChem BioAssay (NCI).
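The compound was tested at five concentrations on cells cultured in 96-well plates, with a 48-hour exposure period. Definition used: TGI = concentration required for complete inhibition of growth.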

What was measured:
Assay in all cases: inhibition of tumour cell growth, NCI panel, 48 h
[1] = system: 786-0 renal
[2] = system: A498 renal
[3] = system: A549 NSCLC
[4] = system: ACHN renal
[5] = system: BT-549 breast
[6] = system: CAKI-1 renal
[7] = system: CCRF-CEM leukemia
[8] = system: COLO 205 colon
[9] = system: DU-145 prostate
[10] = system: EKVX NSCLC
[11] = system: HCC-2998 colon
[12] = system: HCT-116 colon
[13] = system: HCT-15 colon
[14] = system: HL-60(TB) leukemia
[15] = system: HOP-62 NSCLC
[16] = system: HS 578T breast
[17] = system: IGROV1 ovarian
[18] = system: K-562 leukemia
[19] = system: KM12 colon
[20] = system: LOX IMVI melanoma
[21] = system: M14 melanoma
[22] = system: MALME-3M melanoma
[23] = system: MCF7 breast
[24] = system: MDA-MB-231 breast
[25] = system: MDA-MB-435
[26] = system: MDA-N
[27] = system: MOLT-4 leukemia
[28] = system: NCI-H226 lung
[29] = system: NCI-H23 lung
[30] = system: NCI-H460 lung
[31] = system: NCI-H522 lung
[32] = system: NCI/ADR-RES ovarian
[33] = system: OVCAR-3 ovarian
[34] = system: OVCAR-4 ovarian
[35] = system: OVCAR-5 ovarian
[36] = system: OVCAR-8 ovarian
[37] = system: PC-3 prostate
[38] = system: RPMI-8226 leukemia
[39] = system: RXF 393 renal
[40] = system: SF-268 CNS
[41] = system: SF-295 CNS
[42] = system: SF-539 CNS
[43] = system: SK-MEL-2 melanoma
[44] = system: SK-MEL-28 melanoma
[45] = system: SK-MEL-5 melanoma
[46] = system: SK-OV-3 ovarian
[47] = system: SN12C renal
[48] = system: SNB-19 CNS
[49] = system: SNB-75 CNS
[50] = system: SR leukemia
[51] = system: SW-620 colon
[52] = system: T-47D breast
[53] = system: TK-10 renal
[54] = system: U251 CNS
[55] = system: UACC-257 melanoma
[56] = system: UACC-62 melanoma
[57] = system: UO-31 renal
[58] = system: HOP-92 NSCLC
[59] = system: HT29 colon

SMILES: CCOC(=O)c1cc(Br)c(-c2onc(C)c2Br)n1C
- TGI [1]: 86.1 µM
- TGI [2]: > 100 µM
- TGI [3]: 64.2 µM
- TGI [4]: > 100 µM
- TGI [5]: > 100 µM
- TGI [6]: 45.4 µM
- TGI [7]: > 100 µM
- TGI [8]: 85.7 µM
- TGI [9]: > 100 µM
- TGI [10]: 85.6 µM
- TGI [11]: > 100 µM
- TGI [12]: 41.6 µM
- TGI [13]: > 100 µM
- TGI [14]: 27.5 µM
- TGI [15]: > 100 µM
- TGI [16]: > 100 µM
- TGI [17]: > 100 µM
- TGI [18]: > 100 µM
- TGI [19]: 69.5 µM
- TGI [20]: > 100 µM
- TGI [21]: > 100 µM
- TGI [22]: > 100 µM
- TGI [23]: 77.5 µM
- TGI [24]: > 100 µM
- TGI [25]: > 100 µM
- TGI [26]: > 100 µM
- TGI [27]: 44.3 µM
- TGI [28]: > 100 µM
- TGI [29]: > 100 µM
- TGI [30]: > 100 µM
- TGI [31]: 72.7 µM
- TGI [32]: > 100 µM
- TGI [33]: > 100 µM
- TGI [34]: > 100 µM
- TGI [35]: 68.8 µM
- TGI [36]: > 100 µM
- TGI [37]: > 100 µM
- TGI [38]: > 100 µM
- TGI [39]: 28.6 µM
- TGI [40]: > 100 µM
- TGI [41]: 76.2 µM
- TGI [42]: > 100 µM
- TGI [43]: > 100 µM
- TGI [44]: > 100 µM
- TGI [45]: 32.4 µM
- TGI [46]: 59.8 µM
- TGI [47]: 56.8 µM
- TGI [48]: > 100 µM
- TGI [49]: 53 µM
- TGI [50]: 92.9 µM
- TGI [51]: > 100 µM
- TGI [52]: 57.7 µM
- TGI [53]: > 100 µM
- TGI [54]: > 100 µM
- TGI [55]: > 100 µM
- TGI [56]: > 100 µM
- TGI [57]: > 100 µM

SMILES: CC1C(O)Oc2cc3c(cc2C1c1ccccc1O)OCO3 (centres undefined)
- TGI [1]: > 100 µM
- TGI [2]: 82.7 µM
- TGI [3]: > 100 µM
- TGI [4]: > 100 µM
- TGI [5]: > 100 µM
- TGI [6]: > 100 µM
- TGI [7]: 51.2 µM
- TGI [8]: 31 µM
- TGI [9]: > 100 µM
- TGI [10]: > 100 µM
- TGI [11]: > 100 µM
- TGI [12]: 35.5 µM
- TGI [13]: > 100 µM
- TGI [14]: 36.7 µM
- TGI [15]: > 100 µM
- TGI [58]: 47.2 µM
- TGI [16]: 46.6 µM
- TGI [59]: 66.6 µM
- TGI [17]: > 100 µM
- TGI [18]: 46.5 µM
- TGI [19]: > 100 µM
- TGI [20]: > 100 µM
- TGI [21]: > 100 µM
- TGI [22]: 83.8 µM
- TGI [23]: > 100 µM
- TGI [24]: 65.4 µM
- TGI [25]: > 100 µM
- TGI [26]: > 100 µM
- TGI [27]: 61.7 µM
- TGI [28]: 69.2 µM
- TGI [29]: > 100 µM
- TGI [30]: 64.1 µM
- TGI [31]: 42.9 µM
- TGI [33]: 99 µM
- TGI [35]: > 100 µM
- TGI [36]: > 100 µM
- TGI [37]: 65.7 µM
- TGI [38]: 48.1 µM
- TGI [39]: 48.4 µM
- TGI [40]: > 100 µM
- TGI [41]: 65.5 µM
- TGI [42]: 79.2 µM
- TGI [43]: 83.8 µM
- TGI [44]: 84 µM
- TGI [45]: 98.5 µM
- TGI [46]: > 100 µM
- TGI [47]: > 100 µM
- TGI [48]: > 100 µM
- TGI [49]: 87.4 µM
- TGI [50]: 25.2 µM
- TGI [51]: > 100 µM
- TGI [52]: > 100 µM
- TGI [53]: 89.6 µM
- TGI [54]: > 100 µM
- TGI [55]: > 100 µM
- TGI [56]: > 100 µM
- TGI [57]: > 100 µM
